≈ marks a conversion by molar mass, not a printed value. Read-outs that look alike come from different tables or passages of the source.
Legend:
[1] = Test 1: urinary recovery after oral administration; assay type: in vivo; details: mice (ICR-strain, female), 300 mcg per mouse, urine collected until 5 hours after administration, microbial assay, molar percentage
Procedure: To mice (ICR-strain, female, 4 weeks-aged) was orally administered a new cephalosporin compound according to this invention at a dosage of 300 mcg per mouse. Until the end of 5 hours after oral administration of the test cephalosporin compound, all the volumes of urine discharged by the treated mice were collected together, and the total amount of the test compound remaining in the collected urine was measured by a microbial assay method. The urinary recovery of the test compound was calculated in terms of percentage of the molar quantity of the test compound as recovered, against the molar quantity of the test compound as orally given.

[2] = system: Rms823/Escherichia coli K-12 W3630; test: MIC, serial dilution method in Müller-Hinton agar; assay type: cell-based; details: 18 h
Procedure: (§1) The antibacterial activities of the cephalosporin compounds of the formula (I) according to this invention, specifically the final product compounds of the Examples 1 to 6 given hereinafter, were assayed in term of their minimum inhibitory concentrations (MIC; mcg/ml) against various test bacteria, as determined according to a standard serial dilution method in Müller-Hinton agar medium (a product of Difico company), where the incubation was made at 37°C for 18 hours. For the comparison purpose, the antibacterial spectrum of a known compound, Cefalexin (abbreviated as CEX) was also assayed in the same way as above.

[3] = system: Salmonella typhimurium IID971; test: MIC, serial dilution method in Müller-Hinton agar; assay type: cell-based; details: Salmonella enterica, 18 h
Procedure: as §1

[4] = system: Micrococcus luteus ATCC9341; test: MIC, serial dilution method in Müller-Hinton agar; assay type: cell-based; details: 37°C, 18 hours
Procedure: as §1

[5] = system: Salmonella enteritidis G14; test: MIC, serial dilution method in Müller-Hinton agar; assay type: cell-based; details: Salmonella enterica
Procedure: as §1

[6] = system: Klebsiella pneumoniae PCI602; test: MIC, serial dilution method in Müller-Hinton agar; assay type: cell-based; details: Klebsiella pneumoniae, PCI602, 18 h
Procedure: as §1

[7] = system: Salmonella paratyphi 1015; test: MIC, serial dilution method in Müller-Hinton agar; assay type: cell-based; details: Salmonella enterica, 37°C, 18 hours
Procedure: as §1

[8] = system: Rms139/MI Pseudomonas aeruginosa; test: MIC, serial dilution method in Müller-Hinton agar; assay type: cell-based; details: 18 h
Procedure: as §1

[9] = system: Rte16/Escherichia coli K-12 W3630; test: MIC, serial dilution method in Müller-Hinton agar; assay type: cell-based; details: 18 h
Procedure: as §1

[10] = system: Bacillus subtilis ATCC6633; test: MIC, serial dilution method in Müller-Hinton agar; assay type: cell-based; details: 37°C, 18 hours
Procedure: as §1

[11] = system: Proteus morganii IFO3848; test: MIC, serial dilution method in Müller-Hinton agar; assay type: cell-based; details: Morganella morganii; Proteus morganii IFO3848; Müller-Hinton agar, 37°C, 18 hours; read-out: MIC
Procedure: as §1

[12] = system: Klebsiella oxytosa GN10560; test: MIC, serial dilution method in Müller-Hinton agar; assay type: cell-based; details: Klebsiella oxytosa GN10560, cefuroximase producing strain, 37°C, 18 hours
Procedure: as §1

[13] = system: Salmonella typhi 901; test: MIC, serial dilution method in Müller-Hinton agar; assay type: cell-based; details: Salmonella enterica, 18 h
Procedure: as §1

[14] = system: Staphylococcus aureus FDA209P JC-1; test: MIC, serial dilution method in Müller-Hinton agar; assay type: cell-based
Procedure: as §1

[15] = system: Rms213/Escherichia coli K-12 W3630; test: MIC, serial dilution method in Müller-Hinton agar; assay type: cell-based; details: 18 h
Procedure: as §1

[16] = system: Escherichia coli NIHJ-JS-2; test: MIC, serial dilution method in Müller-Hinton agar; assay type: cell-based
Procedure: as §1

[17] = system: Salmonella schottmulleri 8006; test: MIC, serial dilution method in Müller-Hinton agar; assay type: cell-based; details: 37°C, 18 hours
Procedure: as §1

[18] = system: Proteus rettgeri IFO3850; test: MIC, serial dilution method in Müller-Hinton agar; assay type: cell-based; details: Providencia rettgeri
Procedure: as §1

[19] = system: Escherichia coli K-12 C600; test: MIC, serial dilution method in Müller-Hinton agar; assay type: cell-based
Procedure: as §1

[20] = system: Rms212/Escherichia coli K-12 W3630; test: MIC, serial dilution method in Müller-Hinton agar; assay type: cell-based; details: 18 h
Procedure: as §1

[21] = system: Staphylococcus aureus MS353; test: MIC, serial dilution method in Müller-Hinton agar; assay type: cell-based
Procedure: as §1

[22] = system: Staphylococcus aureus Terajima; test: MIC, serial dilution method in Müller-Hinton agar; assay type: cell-based; details: 37°C, 18 hours
Procedure: as §1

[23] = system: Pseudomonas aeruginosa IFO3445; test: MIC, serial dilution method in Müller-Hinton agar; assay type: cell-based; details: 37°C, 18 hours
Procedure: as §1

[24] = system: Proteus vulgaris OX-19; test: MIC, serial dilution method in Müller-Hinton agar; assay type: cell-based; details: OX19, 37°C, 18 hours
Procedure: as §1

[25] = Staphylococcus aureus FDA209P JC-1, Müller-Hinton agar, 37°C, 18 hours, read-out: MIC
[26] = Proteus rettgeri IFO3850, Müller-Hinton agar, 37°C, 18 hours, read-out: MIC
[27] = Staphylococcus aureus MS353, Müller-Hinton agar, 37°C, 18 hours, read-out: MIC
[28] = Salmonella enteritidis G14, Müller-Hinton agar, 37°C, 18 hours, read-out: MIC
[29] = Escherichia coli, NIHJJS2, 18 h
[30] = Escherichia coli, K12C600, 18 h

C=CC1=C(C(=O)O)N2C(=O)C(NC(=O)[C@H](N)c3ccc(CO)c(O)c3)[C@H]2SC1 (stereo partly drawn) [Example 3 Compound, 7-{(R)-2-amino-2-(3-hydroxy-4-hydroxymethylphenyl)acetamido}-3-vinyl-3-cephem-4-carboxylic acid]
dose excreted [1]: 65% | MIC [2]: > 100 µg/mL | MIC [3]: 3.13 µg/mL (≈ 7.72 µM) | MIC [4]: 0.2 µg/mL (≈ 0.493 µM) | MIC ([5]; ENTERITIDIS, 18 h): 3.13 µg/mL (≈ 7.72 µM) | MIC [6]: 3.13 µg/mL (≈ 7.72 µM) | MIC [7]: 3.13 µg/mL (≈ 7.72 µM) | MIC [8]: > 100 µg/mL | MIC [9]: 12.5 µg/mL (≈ 30.8 µM) | MIC [10]: 0.05 µg/mL (≈ 0.123 µM) | MIC [11]: 50 µg/mL (≈ 123 µM) | MIC [12]: > 100 µg/mL | MIC [13]: 3.13 µg/mL (≈ 7.72 µM) | MIC [14, 25]: 1.56 µg/mL (≈ 3.85 µM) | MIC [15]: 12.5 µg/mL (≈ 30.8 µM) | MIC ([16]; NIHJJS2, Escherichia coli NIHJ-JS-2, Müller-Hinton agar, 37°C, 18 hours, read-out: MIC): 6.25 µg/mL (≈ 15.4 µM) | MIC [17]: 3.13 µg/mL (≈ 7.72 µM) | MIC [18, 26]: 50 µg/mL (≈ 123 µM) | MIC ([19]; K12C600, Escherichia coli K-12 C600, Müller-Hinton agar, 37°C, 18 hours, read-out: MIC): 6.25 µg/mL (≈ 15.4 µM) | MIC [20]: 12.5 µg/mL (≈ 30.8 µM) | MIC [21, 27]: 1.56 µg/mL (≈ 3.85 µM) | MIC [22]: 0.2 µg/mL (≈ 0.493 µM) | MIC [23]: > 100 µg/mL | MIC [24]: 25 µg/mL (≈ 61.7 µM)

CC1=C(C(=O)O)N2C(=O)C(NC(=O)[C@H](N)c3ccc(CO)c(O)c3)[C@H]2SC1 (stereo partly drawn) [Example 1 Compound, 7-{(R)-2-amino-2-(3-hydroxy-4-hydroxymethylphenyl)acetamido}-3-methyl-3-cephem-4-carboxylic acid]
dose excreted [1]: 65.1% | MIC [2]: 100 µg/mL (≈ 254 µM) | MIC [3]: 6.25 µg/mL (≈ 15.9 µM) | MIC [4]: 0.1 µg/mL (≈ 0.254 µM) | MIC [5, 28]: 50 µg/mL (≈ 127 µM) | MIC [6]: 6.25 µg/mL (≈ 15.9 µM) | MIC [7]: 12.5 µg/mL (≈ 31.8 µM) | MIC [8]: > 100 µg/mL | MIC [9]: 12.5 µg/mL (≈ 31.8 µM) | MIC [10]: 0.78 µg/mL (≈ 1.98 µM) | MIC [11]: > 100 µg/mL | MIC [12]: 100 µg/mL (≈ 254 µM) | MIC [13]: 6.25 µg/mL (≈ 15.9 µM) | MIC [14, 25]: 3.13 µg/mL (≈ 7.96 µM) | MIC [15]: 12.5 µg/mL (≈ 31.8 µM) | MIC [16, 29]: 12.5 µg/mL (≈ 31.8 µM) | MIC [17]: 12.5 µg/mL (≈ 31.8 µM) | MIC ([18]; IFO3850, 18 h): 12.5 µg/mL (≈ 31.8 µM) | MIC [19, 30]: 12.5 µg/mL (≈ 31.8 µM) | MIC [20]: 12.5 µg/mL (≈ 31.8 µM) | MIC [21, 27]: 3.13 µg/mL (≈ 7.96 µM) | MIC [22]: 0.2 µg/mL (≈ 0.508 µM) | MIC [23]: > 100 µg/mL | MIC [24]: 100 µg/mL (≈ 254 µM)

COCC1=C(C(=O)O)N2C(=O)C(NC(=O)[C@H](N)c3ccc(CO)c(O)c3)[C@H]2SC1 (stereo partly drawn) [Example 2 Compound, 7-{(R)-2-amino-2-(3-hydroxy-4-hydroxymethylphenyl)acetamido}-3-methoxymethyl-3-cephem-4-carboxylic acid]
dose excreted [1]: 48.3% | MIC [2]: > 100 µg/mL | MIC [3]: 6.25 µg/mL (≈ 14.8 µM) | MIC [4]: 0.1 µg/mL (≈ 0.236 µM) | MIC ([5]; ENTERITIDIS, 18 h): 6.25 µg/mL (≈ 14.8 µM) | MIC [6]: 6.25 µg/mL (≈ 14.8 µM) | MIC [7]: 12.5 µg/mL (≈ 29.5 µM) | MIC [8]: > 100 µg/mL | MIC [9]: 25 µg/mL (≈ 59 µM) | MIC [10]: 0.2 µg/mL (≈ 0.472 µM) | MIC [11]: 50 µg/mL (≈ 118 µM) | MIC [12]: > 100 µg/mL | MIC [13]: 6.25 µg/mL (≈ 14.8 µM) | MIC [14, 25]: 1.56 µg/mL (≈ 3.68 µM) | MIC [15]: 12.5 µg/mL (≈ 29.5 µM) | MIC [16, 29]: 12.5 µg/mL (≈ 29.5 µM) | MIC [17]: 6.25 µg/mL (≈ 14.8 µM) | MIC [18, 26]: 25 µg/mL (≈ 59 µM) | MIC [19, 30]: 12.5 µg/mL (≈ 29.5 µM) | MIC [20]: 50 µg/mL (≈ 118 µM) | MIC [21, 27]: 1.56 µg/mL (≈ 3.68 µM) | MIC [22]: 0.2 µg/mL (≈ 0.472 µM) | MIC [23]: > 100 µg/mL | MIC [24]: 100 µg/mL (≈ 236 µM)

CC1=C(C(=O)O)N2C(=O)[C@@H](NC(=O)[C@H](N)c3ccccc3)[C@H]2SC1 [CEX, Cefalexin, reference compound]
MIC [2]: 12.5 µg/mL (≈ 36 µM) | MIC [3]: 6.25 µg/mL (≈ 18 µM) | MIC [4]: 0.1 µg/mL (≈ 0.288 µM) | MIC [5, 28]: > 100 µg/mL | MIC [6]: 3.13 µg/mL (≈ 9.01 µM) | MIC [7]: 6.25 µg/mL (≈ 18 µM) | MIC [8]: > 100 µg/mL | MIC [9]: 12.5 µg/mL (≈ 36 µM) | MIC [10]: 0.78 µg/mL (≈ 2.25 µM) | MIC [11]: 25 µg/mL (≈ 72 µM) | MIC [12]: > 100 µg/mL | MIC [13]: 3.13 µg/mL (≈ 9.01 µM) | MIC ([14]; Staphylococcus aureus, FDA209P, 18 h): 3.13 µg/mL (≈ 9.01 µM) | MIC [15]: 12.5 µg/mL (≈ 36 µM) | MIC [16, 29]: 6.25 µg/mL (≈ 18 µM) | MIC [17]: 6.25 µg/mL (≈ 18 µM) | MIC [18, 26]: 12.5 µg/mL (≈ 36 µM) | MIC [19, 30]: 6.25 µg/mL (≈ 18 µM) | MIC [20]: 12.5 µg/mL (≈ 36 µM) | MIC ([21]; Staphylococcus aureus, MS353, 18 h): 3.13 µg/mL (≈ 9.01 µM) | MIC [22]: 0.2 µg/mL (≈ 0.576 µM) | MIC [23]: > 100 µg/mL | MIC [24]: 12.5 µg/mL (≈ 36 µM)

Source: patent EP0321364A2, “Orally administrable cephalosporin derivatives, and the production and uses thereof” (ZAIDAN HOJIN BISEIBUTSU KAGAKU KENKYU KAI, priority 1987, dated 1989)
